Results on 3 molecules are retold here after patent publication US8906936B2, “Pharmaceutical combination comprising co-administration of taxane and N-(1-cyclohexyl-2-{2-[4-(4-fluoro-benzoyl)-thiazol-2-yl]-pyrrolidin-1-yl}-2-oxo-ethyl)-2-methylamino-propionamide or pharmaceutically acceptable salt(s) thereof” (Novartis AG, priority 2005, dated 2014).

Each structure is given as a SMILES string.

Data set [1] relates to MDA231. Put plainly: 72 hr MTS assay, LBW242 with or without Taxol, MDA231. It counts as cell-based, human. The text has this: (§1) 1. […] MTS Data is generated as described below:
(§2) Selection of IAP Inhibitor Dose Levels

Data set [2] relates to SKOV3. Kind of data set: 72 hr MTS assay, LBW242 with or without Taxol, SKOV3. It counts as cell-based, human.
Text: as §1, §2
For orientation: Formazan colour is commonly taken as a measure of viable cells.

Data set [3] addresses BIR3 domain of CIAP1 (Homo sapiens, UniProt Q13490). Put plainly: affinity for BIR3 domain of CIAP1. It counts as binding.
Data set [4] concerns tumor cell lines representing lung, ovarian, melanoma, pancreatic cancers. Put plainly: 72 hr MTS assay, panels of tumor cell lines (lung, ovarian, melanoma, pancreatic).
Protocol: To determine whether the spectrum of tumor cell lines which responded to these agents would be wider in combination with the cytotoxic drug Taxol, we subject panels of tumor cell lines representing a number of human cancers to in vitro combination analyses.
MTS Reagent (#G1111; Promega) in PBS, pH 6-6.5. […] Tumor Cell Lines are purchased from ATCC.
Cell proliferation/cell death is analyzed in 72 hr. […] Tumor cell lines are plated at subconfluent densities in 96 well plate format and allowed to adhere for 12-16 hr. Cpds are then added according to the following schemes: i.
Chemotherapeutic agents or cytotoxic cpds (Ctx) are added alone, in an 8-point/10-fold titration scheme from high to low dose, in triplicate. ii. […] Once all dosing is completed, cells are cultured for a further 72 hr. and then assayed using the MTS format:
Plate cells in RPMI/10% FBS Complete medium. […]
Add MTS/PMS reagents to T.0 Plate(s). […] Read OD 490 nm using SoftMax Pro software on a Molecular Devices (Sunnyvale, Calif.) Spectrophotometer. Calculate T.0 values for each cell line to be assayed by generating the mean value of the OD 490 nm readings from each cell line's T.0 wells (6/cell line) and subtracting the mean OD 490 nm values from Blank wells. […]
Add 20 ul mixture to ea. well & incubate plate(s) 2 hr. @ 37° C./5% CO2. Read OD 490 nm using SoftMax Pro software on a Molecular Devices Spectrophotometer. […]
The target of data set [5] is BIR3 domain of XIAP (Homo sapiens, UniProt P98170). Put plainly: affinity for BIR3 domain of XIAP. It counts as binding.
In data set [6] the test system is ovarian carcinoma line SKOV3. Put plainly: anti-proliferative activity of combination with Docetaxel in SKOV3 in vitro. The following applies: across a dose range. In kind it is cell-based. The text has this: FIG. 1 indicates anti-proliferative activity of compound of formula (III) alone (bottom row), Docetaxel alone (most leftward column) and combinations of the two agents across a dose range. FIG. 2 is the corresponding isobologram at 70% growth inhibition.

Data set [7] has as its system orthotopic breast cancer model MDA-MB-231. Put plainly: orthotopic breast cancer model MDA-MB-231, anti-tumor activity. In kind it is in vivo. The following applies: in combination with Paclitaxel; established tumors treated for two weeks; compared to either single agent.
Data set [8] relates to melanoma cell line A375. Put plainly: three day proliferation assay in A375. In kind it is cell-based. The procedure: Bottom two curves show Taxol dose response in presence of either 6 μM or 12 μM compound of formula (III).
Setting [9] is: criterion: minimum five fold potency shift of Taxol IC50 relative to Taxol alone.

Chain of BIR3 domain of XIAP (P98170 241-356 limits assumed): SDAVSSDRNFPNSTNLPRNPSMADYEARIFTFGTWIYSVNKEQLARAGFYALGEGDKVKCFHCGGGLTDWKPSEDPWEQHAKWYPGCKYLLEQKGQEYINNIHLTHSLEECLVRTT
Chain of BIR3 domain of CIAP1 (Q13490 253-363 limits assumed): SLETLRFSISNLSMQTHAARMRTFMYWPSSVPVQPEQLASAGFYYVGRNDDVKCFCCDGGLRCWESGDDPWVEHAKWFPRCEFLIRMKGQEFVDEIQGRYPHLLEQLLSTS

Consider `CN[C@@H](C)C(=O)N[C@H](C(=O)N1CC[C@H]2CCN(CCc3ccccc3)C[C@H]21)C1CCCCC1` [LBW242], for which the “combination activity with Taxol” value in data set [1] (setting [9]) and in data set [2] (setting [9]) was “exhibit combination activity” throughout. The response to monotherapy entry in data set [1] (single agent) and in data set [2] (single agent) was “responsive” in each case. For the same molecule, in data set [3], the affinity entry is “nM affinity”. Further, in data set [4] (in combination with Taxol), the “range of tumor cell lines sensitive in combination with a cytotoxic agent versus as a single agent” value was “slightly larger”. For the same molecule, the “single agent activity across tumor cell lines” value in data set [4] (single agent, in vitro) is recorded as “single agent activity on a limited number of tumor cell lines”.

In the case of `CN[C@@H](C)C(=O)N[C@H](C(=O)N1CCC[C@H]1c1nc(C(=O)c2ccc(F)cc2)cs1)C1CCCCC1` [LCL161], in data set [5], the affinity entry is reported as “nM affinity”.

Regarding `CN[C@@H](C)C(=O)N[C@H](C(=O)N1CC[C@H]2CCN(CCc3ccccc3)C[C@H]21)C1CCCCC1` [compound of formula (III)], the “interaction of the combination with Docetaxel (anti-proliferative activity)” value in data set [6] is on record as “significant synergy”. In addition, in data set [7], the “anti-tumor activity of the combination with Paclitaxel” value is “superior anti-tumor activity compared to either agent administered as a single agent”. The “anti-proliferative activity of Taxol in combination” value in data set [8] (Taxol dose response in presence of 6 μM or 12 μM compound of formula (III), A375, three day) is reported as “dramatically enhanced”. For the same molecule, the stand alone activity entry in data set [8] (single agent, A375 (data not shown)) is reported as “no stand alone activity”.
